Active and inactive are the calls of the source. How the calls were made is not given here.

The assay deals with S. cerevisiae GAL1 promoter reporter activation counterscreen. Nature of the assay: yeast Gal1p promoter activation – S. cerevisiae, artefact control for yeast lifespan extension project (AID 816).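 Further: yeast growth read after 24 h of incubation with compounds.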
A word on the EC50: it is the concentration needed to bring the measured effect to its halfway point. For `C=CCn1c(C)cc(C(=O)COc2ncnc3sccc23)c1C`, the EC50 was > 40 µM (inactive).

Turning to `Cc1c(O)c(S(=O)c2ccccc2)c(=O)n(-c2ccccc2)c1-c1ccccc1` (stereo not drawn), the EC50 was > 40 µM (inactive).

For `CC(=Nc1ccc2c(c1)nc(CO)n2C)C1=C(O)CC(C)(C)CC1=O`, the EC50 was > 40 µM (inactive).

Regarding `CS(=O)(=O)Oc1ccc(Br)cc1/C=C1/N=C(c2ccco2)OC1=O`, the EC50 was > 40 µM (inactive).

Take `N#Cc1cc(C(=O)c2cc(F)ccc2O)cn(-c2nccs2)c1=O`: the EC50 was > 40 µM (inactive).

In the case of `C=CCn1c(O)c(C(CC)=NCCN2CCOCC2)c(=O)[nH]c1=O`, the EC50 was > 40 µM (inactive).

As for `COc1ccc(/C=C(\C#N)C(=O)N2CCOCC2)cc1Br`, the EC50 is > 40 µM (inactive).

Turning to `CC(C)(C)C1CCc2[nH]nc(C(=O)O)c2C1` (stereo not drawn), the EC50 was > 40 µM (inactive).

As for `O=C(Nc1ccc(S(=O)(=O)N2CCc3ccccc3C2)cc1)c1ccccc1`, the EC50 is > 40 µM (inactive).

On to `COc1cccc(/C=C2\C(=O)N(c3cccc(C)c3)C(=O)c3ccccc32)c1`, for which the EC50 was > 40 µM (inactive).

Take `N#Cc1ccc(-c2ccc(OCC(=O)NCCc3ccccc3)cc2)cc1`: the EC50 was > 40 µM (inactive).

Turning to `O=Cc1cccn1-c1sc2c(c1C(=O)O)CCCC2`, the EC50 was > 40 µM (inactive).

As to `COc1ccc(OC)c(NC(=S)N2CCN(C/C=C/c3ccccc3)CC2)c1`, the EC50 was > 40 µM (inactive).

Turning to `O=C(O)c1ccc(O)c(N2C(=O)Nc3ccccc3N2O)c1`, the EC50 is > 40 µM (inactive).

On to `O=C1C(=C(O)c2ccccc2)C(=O)c2ccccc21`, for which the EC50 is > 40 µM (inactive).

As for `Cc1ccc(Oc2nc3ccccc3n3c(C)nnc23)c(C)c1`, the EC50 was > 40 µM (inactive).

`CSc1ccc(S(=O)(=O)NCc2ccc(Cl)cc2Cl)cc1`: the EC50 is > 40 µM (inactive).

In the case of `COCCCN(C(=S)Nc1cc(Cl)cc(Cl)c1)C(C)c1ccncc1` (stereo not drawn), the EC50 was > 40 µM (inactive).

For `CCCCSc1[nH]c(=O)c(C(=O)OCC)cc1C#N`, the EC50 is > 40 µM (inactive).

Regarding `COC(=O)c1cc(OC)c(OC)cc1NC(=S)Nc1cccc(C(C)=O)c1`, the EC50 was > 40 µM (inactive).

Consider `Cc1ccc(OCC(=O)c2c(O)c3ccccc3oc2=O)cc1C`, for which the EC50 was > 40 µM (inactive).

For the compound `Cc1nc(SC(C)C)[nH]c(=O)c1Cc1ccccc1`, the EC50 was > 40 µM (inactive).

In the case of `CCOC(=O)C1CCN(C(c2cc3ccc(C)c(C)c3[nH]c2=O)c2nnnn2C2CCCCC2)CC1` (stereo not drawn), the EC50 is > 40 µM (inactive).

Regarding `CCOC(=O)c1nnn(-c2nonc2N)c1CN1CCc2ccccc2C1`, the EC50 is > 40 µM (inactive).

Consider `O=C1/C(=C\c2cccnc2)CN(Cc2ccccc2)C/C1=C\c1cccnc1`, for which the EC50 is > 40 µM (inactive).

As to `COc1ccc(C2CC23N=C(c2ccccc2)OC3=O)cc1` (stereo not drawn), the EC50 was > 40 µM (inactive).

In the case of `CCCCC(=Nc1ccc(N)cc1)C1=C(O)C(C(=O)OC)C(C)(C)CC1=O` (stereo not drawn), the EC50 was > 40 µM (inactive).

Consider `C=CCn1c(C)cc(C(=O)CSc2nc3ccccc3c(=O)[nH]2)c1C`, for which the EC50 was > 40 µM (inactive).

`Cn1c(SCC(=O)N2CCCc3ccccc32)nnc1-c1c[nH]c2ccccc12`: the EC50 is > 40 µM (inactive).

In the case of `O=C1C(Cl)=C(Nc2ccccc2O)C(=O)N1CCc1ccccc1`, the EC50 is > 40 µM (inactive).

As for `Cc1ccnc(-n2c(C)cc(/C=C3\C(=O)NC(=S)N(C)C3=O)c2C)c1`, the EC50 is > 40 µM (inactive).

With `Cc1cc(C)c(S(=O)(=O)c2ccccc2)c(OC(=O)c2cc(F)c(F)cc2Cl)n1`, the EC50 was > 40 µM (inactive).

As for `O=C(NCc1ccc(Cl)cc1)c1ccccc1CCc1ccccc1`, the EC50 was > 40 µM (inactive).

For `O=C1Nc2cc(Cl)c(Cl)cc2N(O)N1c1cc(Cl)cc(Cl)c1`, the EC50 was > 40 µM (inactive).

Take `Cc1c(NC(=O)C(=O)/C=C(/O)c2ccccc2)c(=O)n(-c2ccccc2)n1C`: the EC50 was > 40 µM (inactive).

Consider `CCOc1ccc(N=Cc2c(O)c3ccccc3oc2=O)cc1`, for which the EC50 was > 40 µM (inactive).

Regarding `O=C(CCC1CCCC1)c1c(O)c2ccccc2oc1=O`, the EC50 was > 40 µM (inactive).

Regarding `CCOC(=O)COc1ccccc1/C=C\[N+](=O)[O-]`, the EC50 was > 40 µM (inactive).

`Cc1cc(C2C(C#N)=C(N)Oc3n[nH]c(C)c32)c(C)s1` (stereo not drawn): the EC50 is > 40 µM (inactive).

As for `CC1C/C(=C\c2cccnc2)C(=O)/C(=C/c2cccnc2)C1` (stereo not drawn), the EC50 was > 40 µM (inactive).

For the compound `C=CCn1c(-c2ccc(OC)cc2)csc1=Nc1c(C)n(C)n(-c2ccccc2)c1=O`, the EC50 is > 40 µM (inactive).

Turning to `O=C(NC(=S)NNS(=O)(=O)c1ccccc1)c1ccc([N+](=O)[O-])cc1`, the EC50 was > 40 µM (inactive).

On to `COc1ccccc1N(CN1CCCC1=O)C(=O)c1c(F)cccc1F`, for which the EC50 is > 40 µM (inactive).

For `CCCC(=O)C1C(=O)CC(CC(C)SCC)CC1=O` (stereo not drawn), the EC50 is > 40 µM (inactive).

Consider `Cc1cccc(N2C(=O)C(Oc3ccc(Cl)cc3Cl)C2C=O)c1C` (stereo not drawn), for which the EC50 was > 40 µM (inactive).

For the compound `C/C=C/Cn1c(N2CCCCCC2)nc2c1c(=O)[nH]c(=O)n2C`, the EC50 was > 40 µM (inactive).

As for `O=C1c2ccccc2NC(c2ccc(Cl)cc2Cl)N1O` (stereo not drawn), the EC50 was > 40 µM (inactive).

In the case of `O=c1c(-c2ccc(Cl)cc2)[n+]([O-])c2ccccc2n1OCc1ccccn1`, the EC50 was > 40 µM (inactive).

`O=C(/C(=C/O)N=Nc1ccc(Cl)cc1)c1ccncc1`: the EC50 is > 40 µM (inactive).

Take `COC(=O)c1cc(=O)n(-c2ccccc2)c(=Nc2ccccc2)s1`: the EC50 was > 40 µM (inactive).

Regarding `O=C(NCc1ccco1)c1cc(C(=O)C2CCCCC2)c[nH]1`, the EC50 was > 40 µM (inactive).

As to `CSC1=NSC2=NC(=O)/C(=C\c3cccs3)C(=N)N12`, the EC50 is > 40 µM (inactive).

`C=CS(=O)(=O)c1ccc(Oc2ccc(S(=O)(=O)C=C)cc2)cc1`: the EC50 is > 40 µM (inactive).

For `CN1CCC2(CC1)C(C#N)=C(N)NC(S)=C2C#N`, the EC50 is > 40 µM (inactive).

`CCc1nnc(N2C(=O)c3ccc(Oc4ccc([N+](=O)[O-])cc4)cc3C2=O)s1`: the EC50 was > 40 µM (inactive).

Turning to `CN1C(=O)C(C(=O)Nc2ccccc2F)c2ccccc21` (stereo not drawn), the EC50 was > 40 µM (inactive).

Take `COc1ccc(/C(O)=C/C(=O)C(=O)Nc2c(C)n(C)n(-c3ccccc3)c2=O)cc1`: the EC50 was > 40 µM (inactive).

With `CCOC(=O)C1=C(C)Nc2nc(=S)[nH]n2C1c1ccc(Cl)cc1` (stereo not drawn), the EC50 is > 40 µM (inactive).

On to `Cc1n[nH]c(=O)n1-c1cccc(C(F)(F)F)c1`, for which the EC50 was > 40 µM (inactive).

For the compound `CCOC(=O)C1C(=O)C(C(C)=O)C(=O)CC1CC(C)SCC` (stereo not drawn), the EC50 was > 40 µM (inactive).

With `CCOc1ccc(OCC(=O)c2c(O)c3ccccc3oc2=O)cc1`, the EC50 is > 40 µM (inactive).

In the case of `CC(=O)c1c(O)cc2n(c1=O)-c1ccc(Cl)cc1C2(C)C`, the EC50 is > 40 µM (inactive).

In the case of `COc1cc(Br)cc(-c2nc3c(c(=O)[nH]c(=O)n3Cc3ccccc3)n2C)c1O`, the EC50 is > 40 µM (inactive).
